Assay type in all cases: cell-based
Experiment [1] concerns the target T1, AURKB (Homo sapiens, UniProt Q96GD4).
T1 construct: endogenous in cells; host or cells: naive MV4-11
As to the kind of experiment: Immunoblot of AURKB in naive MV4-11 cells. The following applies: 6 h, 10 µM. The method, then: The cells were treated with compounds or vehicle for indicated time points and lysed in RIPA lysis buffer (50 mM HEPES pH 7.9, 140 mM NaCl, 1 mM EDTA, 1% Triton X-100, 0.1% SDS, 0.1% sodium deoxycholate) containing protease and phosphatase inhibitors (Sigma) for 20 min at 4 °C. Cell lysates were cleared by centrifugation, and protein concentration was determined with bicinchoninic acid assay. Equal amounts of protein per sample were separated by Bis-Tris-PAGE and transferred to PVDF membranes (Millipore). The membranes were blocked with 5% (w/v) nonfat dry milk in TBS-T [20 mM Tris–HCl, pH 7.5, 150 mM NaCl, 0.1% (v/v) Tween-20] for 1 h at room temperature and incubated with primary antibody at 4 °C overnight. Visualization was carried out using horseradish peroxidase (HRP)-labeled secondary antibodies and detected using a chemiluminescent HRP substrate (Millipore) in LAS3000 or LAS4000 mini (Fujifilm). Vinculin, GAPDH, or B-actin were used as a loading control. The loading control was probed along with the target antibody by cutting the membrane. For targets with similar molecular weights, the samples were run in duplicate and probed with their respective loading controls, although only one control was shown in the figure for all targets. The signal was quantified using ImageJ or Image Studio Lite against the corresponding loading controls. Antibodies used in this study were as follows: Aurora A/AIK (Cell Signaling Technology, 3092), Aurora B (Bethyl Laboratories, A300–431A), TTK (Santa Cruz Biotechnology, sc-56968), GAPDH (Cell Signaling Technology, 2118), B-Actin (Sigma, A5441), and Vinculin (Sigma, V9131).
α GAPDH α Vinculin α B-Actin
Figure S2: Cellular degradation studies of SF1-based compounds. […]
Immunoblots of TTK and AURKB. Naive MV4-11 cells were treated with indicated concentration of 44 or 47 G)
(E), 18 (F), and 14 or 20 (G) for 6 h and compared with vehicle treated cells. […]
All HiBiT data are represented as a mean ±s.d. from n=2 replicates. […]

The target in experiment [2] is T2, TTK (MV4-11^HiBiT-TTK cells) (Homo sapiens, UniProt P33981).
T2 construct: expressed in transfected cells; host or cells: MV4-11, lentiviral transduction (pRRL-PGK-HiBiT entry vector)
T2 sequence (P33981 1-857): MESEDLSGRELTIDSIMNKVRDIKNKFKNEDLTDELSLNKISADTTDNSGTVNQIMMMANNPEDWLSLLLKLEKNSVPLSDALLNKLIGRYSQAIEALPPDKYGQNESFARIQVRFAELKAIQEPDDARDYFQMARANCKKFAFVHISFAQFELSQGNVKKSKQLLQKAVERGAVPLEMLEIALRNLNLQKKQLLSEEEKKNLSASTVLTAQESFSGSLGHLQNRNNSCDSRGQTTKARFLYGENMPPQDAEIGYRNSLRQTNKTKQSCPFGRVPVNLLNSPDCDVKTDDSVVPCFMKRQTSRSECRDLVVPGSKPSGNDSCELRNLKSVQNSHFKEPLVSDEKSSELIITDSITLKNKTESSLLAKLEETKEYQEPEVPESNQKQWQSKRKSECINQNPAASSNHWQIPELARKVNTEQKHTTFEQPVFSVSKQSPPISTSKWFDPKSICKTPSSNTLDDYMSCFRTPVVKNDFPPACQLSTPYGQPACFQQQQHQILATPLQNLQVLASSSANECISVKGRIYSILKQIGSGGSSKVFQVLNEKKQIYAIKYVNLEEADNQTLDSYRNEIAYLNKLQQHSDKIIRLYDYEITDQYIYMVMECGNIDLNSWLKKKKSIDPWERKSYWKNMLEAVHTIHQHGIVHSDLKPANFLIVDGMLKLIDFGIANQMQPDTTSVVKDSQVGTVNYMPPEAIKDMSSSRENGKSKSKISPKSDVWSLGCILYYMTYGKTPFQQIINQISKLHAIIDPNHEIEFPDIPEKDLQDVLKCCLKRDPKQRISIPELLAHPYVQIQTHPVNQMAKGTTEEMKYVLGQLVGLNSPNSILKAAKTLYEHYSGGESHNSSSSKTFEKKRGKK
As to the kind of experiment: HiBiT assay, TTK degradation. The following applies: 6 h treatment, MV4-11^HiBiT-TTK cells; for DC50: read-out: DC50 (half-maximal degradation concentration) TTK. Also noted: key to Dmax (maximal degradation) TTK: compounds with degradation less than 15% reported as “inactive”. In short, it runs like this: (§1)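 MV4-11 lines stably expressing HiBiT-tagged AURKA, AURKB or TTK (lentiviral) were treated with serial compound dilutions for the indicated times. Remaining tagged protein was read by lytic HiBiT luminescence, and DC50 was fitted with a four-parameter dose–response equation using concentrations showing sigmoidal behaviour.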

The target in experiment [3] is T3, AURKA (MV4-11^AURKA-HiBiT cells) (Homo sapiens, UniProt O14965).
T3 construct: expressed in transfected cells; host or cells: MV4-11, lentiviral transduction
T3 sequence (O14965 1-403): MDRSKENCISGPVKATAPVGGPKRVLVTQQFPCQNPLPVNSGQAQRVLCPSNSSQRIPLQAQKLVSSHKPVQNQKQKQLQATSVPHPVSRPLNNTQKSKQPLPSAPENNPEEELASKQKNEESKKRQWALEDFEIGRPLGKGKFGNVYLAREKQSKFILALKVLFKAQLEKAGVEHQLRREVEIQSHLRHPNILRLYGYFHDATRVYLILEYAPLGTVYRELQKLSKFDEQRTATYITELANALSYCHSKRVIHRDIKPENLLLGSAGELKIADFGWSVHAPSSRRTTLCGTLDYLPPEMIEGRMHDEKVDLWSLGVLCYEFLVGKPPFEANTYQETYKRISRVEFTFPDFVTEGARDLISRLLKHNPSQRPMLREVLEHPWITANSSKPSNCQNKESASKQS
As to the kind of experiment: HiBiT assay, AURKA degradation. The following applies: for Dmax (maximal degradation) AURKA / DC50: 6 h treatment, MV4-11^AURKA-HiBiT cells; for DC50: read-out: DC50 (half-maximal degradation concentration) AURKA. In short, it runs like this: as §1
For orientation: With HiBiT, luminescence reflects the tagged protein that the partner subunit can reach.

Where “and” joins values, the source holds several entries; their conditions need not be identical. Equal values may be shown once.

T1 sequence (Q96GD4 whole entry): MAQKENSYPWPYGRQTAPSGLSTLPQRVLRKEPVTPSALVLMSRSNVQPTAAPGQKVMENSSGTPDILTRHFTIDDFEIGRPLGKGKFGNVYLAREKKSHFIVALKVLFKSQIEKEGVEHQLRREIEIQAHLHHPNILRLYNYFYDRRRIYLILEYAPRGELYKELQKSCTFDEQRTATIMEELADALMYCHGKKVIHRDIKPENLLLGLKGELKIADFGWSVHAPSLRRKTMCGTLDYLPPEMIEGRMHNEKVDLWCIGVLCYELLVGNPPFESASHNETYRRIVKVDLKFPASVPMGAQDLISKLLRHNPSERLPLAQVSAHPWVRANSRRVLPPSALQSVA

With `CC(C)S(=O)(=O)c1ccccc1Nc1nc(Nc2ccc(N3CCN(C(=O)CCCC(=O)Nc4cccc5c4C(=O)N(C4CCC(=O)NC4=O)C5=O)CC3)cc2)nc2[nH]cnc12` (centres unmarked) [Compound 14], the “relative AURKB level (immunoblot quantification, vehicle = 1.00)” value in experiment [1] amounted to 0.87. In experiment [2], the “Dmax (maximal degradation) TTK” value was determined as 28.50% and the DC50 is 396 nM. Further, in experiment [3], the “Dmax (maximal degradation) AURKA” value came to 50.10% and the DC50 was 46 nM.

As for `CC(C)S(=O)(=O)c1ccccc1Nc1nc(Nc2ccc(N3CCN(C(=O)CNC(=O)CCCC(=O)Nc4cccc5c4C(=O)N(C4CCC(=O)NC4=O)C5=O)CC3)cc2)nc2[nH]cnc12` (centres unmarked) [Compound 20], in experiment [2], the “Dmax (maximal degradation) TTK” value came out at 48.33% and the DC50 is 281 nM. In addition, in experiment [3], the “Dmax (maximal degradation) AURKA” value is 71% and 70.70%; the DC50 was 68 nM and 67.7 nM. Also, in experiment [3] (HiBiT, 6 h), the “efficiency of AURKA degradation (Dmax) relative to AURKB and TTK” value is 1.5–2.4 times; the “selectivity of AURKA degradation (DC50) relative to AURKB and TTK” value was 3.7–4.2 fold.

`Cc1ncsc1-c1ccc(CNC(=O)[C@@H]2C[C@@H](O)CN2C(=O)[C@@H](NC(=O)CCCC(=O)N2CCN(c3ccc(Nc4nc(Nc5ccccc5S(=O)(=O)C(C)C)c5nc[nH]c5n4)cc3)CC2)C(C)(C)C)cc1` [Compound 44]: the “relative AURKB level (immunoblot quantification, vehicle = 1.00)” value in experiment [1] is reported as 0.79. Also, in experiment [2], the “DC50 (half-maximal degradation concentration) TTK” value was “– (compounds with degradation less than 25% were not calculated and reported as “–”)”; the “Dmax (maximal degradation) TTK” value is “inactive”. Also, in experiment [3], the “Dmax (maximal degradation) AURKA” value is recorded as 35.20% and the DC50 worked out at 1700 nM.

On to `Cc1ncsc1-c1ccc(CNC(=O)[C@@H]2C[C@@H](O)CN2C(=O)[C@@H](NC(=O)COCCOCC(=O)N2CCN(c3ccc(Nc4nc(Nc5ccccc5S(=O)(=O)C(C)C)c5nc[nH]c5n4)cc3)CC2)C(C)(C)C)cc1` [Compound 49], for which, in experiment [2], the “Dmax (maximal degradation) TTK” value is on record as 47.40% and the DC50 came to 5710 nM. In experiment [3], the “Dmax (maximal degradation) AURKA” value was 38.00% and the DC50 is 814 nM.

The values are drawn from paper PMC11555526, “Development of 2-Aminoadenine-Based Proteolysis-Targeting Chimeras (PROTACs) as Novel Potent Degraders of Monopolar Spindle 1 and Aurora Kinases” (ACS Pharmacology & Translational Science, 2024).
